Measured values reported in patent US10301287B2, “Solid forms of cenicriviroc mesylate and processes of making solid forms of cenicriviroc mesylate” (Tobira Therapeutics, Inc., priority 2016, dated 2019).

How the values were obtained:
[1] = cited from earlier work
[2] = Particle size according to USP <429> (laser light diffraction); format: physicochemical
Protocol: In some embodiments, the particle size and the particle size distribution (e.g., D90, D50, and D10) of a compound of the invention is determined by the laser light diffraction particle size distribution analysis. The particle size distribution is determined in accordance with the Fraunhofer light diffraction method. In this method, a coherent laser beam passes through the sample and the resulting diffraction pattern is focused on a multi-element detector. Since the diffraction pattern depends, among other parameters, on particle size, the particle size distribution can be calculated based on the measured diffraction pattern of the sample. In one embodiment, the particle size and the particle size distribution is measured according to U.S. Pharmacopeia (USP) <429>.
Particle Size: The particle size of the Micronized CVC mesylate Form A and the non-micronized CVC mesylate Form A were determined according to USP <429> as shown in Table 5.

[3] = Tapped bulk density, compressibility (Carr's) index and Hausner ratio; format: physicochemical; parameters: Compressibility (Carr's) Index: scale not given here; details: for Interpretation (flow): from average compressibility index / Hausner ratio, Tables 7 and 8
Protocol: Tapped Bulk Density: Tapped bulk density analysis was performed by pouring powder that had been sieved through a 1 mm Retsch stainless steel test sieve into a clean, dry pre-weighed 50 ml measuring cylinder. Powder was added to a total volume of 45-50 ml without compacting the sample. The mass and the initial volume (V0) were recorded. The sample was tapped using a Copley JV2000 tapped density tester using the following number of taps: 10, 490, 750 and sets of 1250 taps up to a total of 10,000 taps (Table 6). The volume was recorded after each set of taps and the sample was tapped until it reached constant volume (Vf). For these samples the 10,000 tap volume was used as Vf. Each sample was analysed in duplicate and the tapped density, compressibility index (Carr's index) and Hausner ratios were calculated using the formulae given below. The results from the duplicate analysis were averaged and the average result was used to assess the flow properties of the sample, using the parameters given in Table 7 (see “The Science of Dosage Form Design”, ME Aulton, 1988) and Table 8 (see USP method <1174>; see also, Carr, R. L. Evaluating Flow Properties of Solids. Chem Eng. 1965, 72, 163-168). Tapped Bulk Density=M/Vf. [formula] [formula]

[4] = Flow properties, Revolution Powder Analyser; format: physicochemical; details: for Avalanche Angle / Avalanche Energy / Avalanche Time / Break Energy / Rest Angle: drum rotation speed 0.3 rpm; for Interpretation (flow): from rest angle, Table 10
Protocol: Flow Properties: The flow properties of the samples were analysed using a Revolution Powder Analyser. Approximately 100 ml of the sample is placed in a sample drum which has two borosilicate glass sides. A motor turns two high precision silicone rollers, which in turn rotate the drum. A digital camera with the assistance of cold cathode backlight illumination takes images of the powder during the rotation process. Using a drum rotation speed of 0.3 rpm the time to avalanche, avalanche angle, avalanche energy, break energy and rest angle are measured. The software calculates these properties by analysing the images produced as the drum is rotated. The results of these properties can be used to assess the flow of the bulk powder. The interpretation of the rest angle (angle of repose) are given in Table 10 (see USP method <1174>; see also, Carr, R. L. Evaluating Flow Properties of Solids. Chem Eng. 1965, 72, 163-168).

[5] = BET surface area by multipoint nitrogen adsorption; format: physicochemical
Protocol: Samples were analysed for BET (Brunauer-Emmett-Teller) surface area by a multipoint Nitrogen adsorption method (volumetric technique) using a Micromeritics TriStar 3020 instrument. The sample degassing was undertaken using a Micromeritics FlowPrep 060 applying flowing argon of 99.995% purity at a flow rate of approximately 20 cc/min for two hours at 20° C. Samples were degassed in their respective analysis tubes and transferred directly to the TriStar II immediately after the degassing period.

[6] = Intrinsic dissolution of compressed disc, Sirius T3; format: physicochemical; details: Britton-Robinson buffer, average pH 3.12 (Form A), room temperature, disc 7.07 mm^2
Protocol: In one embodiment, the extrapolated intrinsic dissolution rate is measured using dissolution disc having 7.07 mm^2 which was compressed under high pressure, ca. 100 kg, using a constructed die. In one embodiment, a Sirius T3 was used as the dissolution apparatus containing 20 mL of test media with stirring speed of the paddle set to −30%. In some embodiments, the dissolution was measured at room temperature. In one embodiment, dissolution was measured over 1 pH sector by ultraviolet (UV) spectrometry. In one embodiment, the UV spectra of the dissolution solution was collected over time, for example every 30 seconds, and converted to concentration using the molar extinction coefficient (MEC) by UV-metric titration. In one embodiment, the intrinsic dissolution rate was calculated by dividing the extrapolated dissolution rate by the surface area of the dissolution disc. In one embodiment, the dissolution media was Britton-Robinson buffer solution. In one embodiment, the dissolution media was pH 3.1 Britton-Robinson buffer solution. In one embodiment, the dissolution media was pH 3.2 Britton-Robinson buffer solution. In another embodiment, the dissolution media was pH 4.7 Britton-Robinson buffer solution.
Intrinsic Dissolution: Appropriate weight of the pure test compound material were used to fill the cavity of the dissolution disc and compressed under high pressure, ca. 100 kg, using a constructed die. No additives were added, avoiding any external interference in the intrinsic dissolution profile. The resulting non-disintegrating disc was transferred to the dissolution apparatus, Sirius T3, containing 20 ml of the test media at room temperature. The stirring speed of the paddle was set to −30%. Dissolution was then measured over 1 pH sector. The solution spectra was collected every 30 seconds over 120 collection points and converted to concentration using the molar extinction coefficient (MEC) by UV-metric titration. Intrinsic dissolution rate was calculated by dividing the extrapolated dissolution rate by the surface area of the disk (7.07 mm^2). All analysis was performed in duplicate, with XRPD both prior to and post dissolution analysis, where possible.
Dissolution media, Britton-Robinson buffer solutions, were prepared by adding a specified volume of sodium hydroxide (0.2 M) to 200 ml of a solution of mixed acid, of 0.04 M with respect to phosphoric acid (2.72 ml/l), acetic acid (2.30 ml/l) and boric acid (2.476 g/l). The amount of sodium hydroxide used to prepare each buffer is outlined below:
pH 3.2 Britton-Robinson buffer: 38 ml of sodium hydroxide.

[7] = Rep. 1, M/Vf, Vf = volume after 10,000 taps
[8] = Rep. 2, M/Vf, Vf = volume after 10,000 taps
[9] = listed as Form A Non-micronized

| Compressibility (Carr's) Index ([3]; Mean of duplicate) | Hausner Ratio ([3]; Mean of duplicate) | Tapped Bulk Density ([3]; Mean of duplicate) | Compressibility (Carr's) Index ([3]; Rep. 1) | Hausner Ratio ([3]; Rep. 1) | Tapped Bulk Density [3, 7] | Compressibility (Carr's) Index ([3]; Rep. 2) | Hausner Ratio ([3]; Rep. 2) | Tapped Bulk Density [3, 8] | Interpretation (flow) [3] | Avalanche Angle [4] | Avalanche Energy [4] | Avalanche Time [4] | Break Energy [4] | Rest Angle [4] | Interpretation (flow) [4] | BET constant, C [5] | Surface area [5] | Extrapolated Dissolution Rate ([6]; Disc 1, 3.14 (Form C)) | Extrapolated Dissolution Rate ([6]; Disc 2, 3.15 (Form C)) | SMILES | further results |
| --- | --- | --- | --- | --- | --- | --- | --- | --- | --- | --- | --- | --- | --- | --- | --- | --- | --- | --- | --- | --- | --- |
|  |  |  |  |  |  |  |  |  |  |  |  |  |  |  |  |  |  |  |  | CCCCOCCOc1ccc(-c2ccc3c(c2)/C=C(/C(=O)Nc2ccc([S@@+]([O-])Cc4cncn4CCC)cc2)CCCN3CC(C)C)cc1 [Cenicriviroc, (S,E)-8-(4-(2-Butoxyethoxy)phenyl)-1-(2-methylpropyl)-N-(4-(((1-propyl-1H-imidazol-5-yl)methyl)sulfinyl)phenyl)-1,2,3,4-tetrahydrobenzo[b]azocine-5-carboxamide] | Water solubility [1]: poorly water-soluble |
| 28.6 | 1.4 | 0.2 g/mL | 27.55 | 1.42 | 0.16 g/mL | 29.59 | 1.40 | 0.16 g/mL | Poor (23-35) | 68.05 deg | 32.98 kJ/kg | 7.4 s | 86.41 kJ/kg | 44.85 deg | Passable (Passable - may hang up 41-45) | 37.98 | 12.3614 ± 0.0440 m^2/g | 7.20 µg/min | 9.43 µg/min | CCCCOCCOc1ccc(-c2ccc3c(c2)/C=C(/C(=O)Nc2ccc([S@@+]([O-])Cc4cncn4CCC)cc2)CCCN3CC(C)C)cc1 [Form A Micronised] | Particle Size D10 ([2]; listed as Form A Micronized): 0.582 μm; Particle Size D50 ([2]; listed as Form A Micronized): 3.226 μm; Particle Size D90 ([2]; listed as Form A Micronized): 7.576 μm |
| 6.0 | 1.1 | 0.5 g/mL | 7.07 | 1.08 | 0.49 g/mL | 5.00 | 1.05 | 0.48 g/mL | Excellent (5-15) | 51.55 deg | 20.28 kJ/kg | 4.4 s | 71.90 kJ/kg | 41.30 deg | Passable (Passable - may hang up 41-45) | 39.87 | 2.3071 ± 0.0058 m^2/g | 10.80 µg/min | 11.38 µg/min | CCCCOCCOc1ccc(-c2ccc3c(c2)/C=C(/C(=O)Nc2ccc([S+]([O-])Cc4cncn4CCC)cc2)CCCN3CC(C)C)cc1 (stereo not drawn) [Form C] | Density and flow compared with the Form A samples ([4]; Revolution Analyzer flowability measurements): more dense and flows better than the Form A samples |

| SMILES | Compressibility (Carr's) Index ([3]; Mean of duplicate) | Hausner Ratio ([3]; Mean of duplicate) | Tapped Bulk Density ([3]; Mean of duplicate) | Compressibility (Carr's) Index ([3]; Rep. 1) | Hausner Ratio ([3]; Rep. 1) | Tapped Bulk Density [3, 7] | Compressibility (Carr's) Index ([3]; Rep. 2) | Hausner Ratio ([3]; Rep. 2) | Tapped Bulk Density [3, 8] | Interpretation (flow) [3] | Avalanche Angle [4] | Avalanche Energy [4] | Avalanche Time [4] | Break Energy [4] | Rest Angle [4] | Interpretation (flow) [4] | BET constant, C [5] | Surface area [5] | Extrapolated Dissolution Rate ([6]; Disc 1, 3.14 (Form C)) | Extrapolated Dissolution Rate ([6]; Disc 2, 3.15 (Form C)) | further results |
| --- | --- | --- | --- | --- | --- | --- | --- | --- | --- | --- | --- | --- | --- | --- | --- | --- | --- | --- | --- | --- | --- |
| CCCCOCCOc1ccc(-c2ccc3c(c2)/C=C(/C(=O)Nc2ccc([S+]([O-])Cc4cncn4CCC)cc2)CCCN3CC(C)C)cc1 (stereo not drawn) [Form A Non-micronised] | 35.4 | 1.5 | 0.2 g/mL | 34.34 | 1.52 | 0.22 g/mL | 36.36 | 1.57 | 0.21 g/mL | Very Poor | 72.60 deg | 41.58 kJ/kg | 6.5 s | 138.38 kJ/kg | 50.75 deg | Poor (Poor - must agitate, vibrate 46-55) | 42.99 | 3.0295 ± 0.0122 m^2/g |  |  | Particle Size D10 [2, 9]: 4.725 μm; Particle Size D50 [2, 9]: 13.803 μm; Particle Size D90 [2, 9]: 65.910 μm |
